Data on 26 compounds can be found in patent US9139529B2, “Substituted quinoxalines as sodium channel modulators” (VERTEX PHARMACEUTICALS INCORPORATED, priority 2013, dated 2015).

Structures are written as SMILES.

Chain of human Nav1.8 (Q9Y5Y9 whole entry): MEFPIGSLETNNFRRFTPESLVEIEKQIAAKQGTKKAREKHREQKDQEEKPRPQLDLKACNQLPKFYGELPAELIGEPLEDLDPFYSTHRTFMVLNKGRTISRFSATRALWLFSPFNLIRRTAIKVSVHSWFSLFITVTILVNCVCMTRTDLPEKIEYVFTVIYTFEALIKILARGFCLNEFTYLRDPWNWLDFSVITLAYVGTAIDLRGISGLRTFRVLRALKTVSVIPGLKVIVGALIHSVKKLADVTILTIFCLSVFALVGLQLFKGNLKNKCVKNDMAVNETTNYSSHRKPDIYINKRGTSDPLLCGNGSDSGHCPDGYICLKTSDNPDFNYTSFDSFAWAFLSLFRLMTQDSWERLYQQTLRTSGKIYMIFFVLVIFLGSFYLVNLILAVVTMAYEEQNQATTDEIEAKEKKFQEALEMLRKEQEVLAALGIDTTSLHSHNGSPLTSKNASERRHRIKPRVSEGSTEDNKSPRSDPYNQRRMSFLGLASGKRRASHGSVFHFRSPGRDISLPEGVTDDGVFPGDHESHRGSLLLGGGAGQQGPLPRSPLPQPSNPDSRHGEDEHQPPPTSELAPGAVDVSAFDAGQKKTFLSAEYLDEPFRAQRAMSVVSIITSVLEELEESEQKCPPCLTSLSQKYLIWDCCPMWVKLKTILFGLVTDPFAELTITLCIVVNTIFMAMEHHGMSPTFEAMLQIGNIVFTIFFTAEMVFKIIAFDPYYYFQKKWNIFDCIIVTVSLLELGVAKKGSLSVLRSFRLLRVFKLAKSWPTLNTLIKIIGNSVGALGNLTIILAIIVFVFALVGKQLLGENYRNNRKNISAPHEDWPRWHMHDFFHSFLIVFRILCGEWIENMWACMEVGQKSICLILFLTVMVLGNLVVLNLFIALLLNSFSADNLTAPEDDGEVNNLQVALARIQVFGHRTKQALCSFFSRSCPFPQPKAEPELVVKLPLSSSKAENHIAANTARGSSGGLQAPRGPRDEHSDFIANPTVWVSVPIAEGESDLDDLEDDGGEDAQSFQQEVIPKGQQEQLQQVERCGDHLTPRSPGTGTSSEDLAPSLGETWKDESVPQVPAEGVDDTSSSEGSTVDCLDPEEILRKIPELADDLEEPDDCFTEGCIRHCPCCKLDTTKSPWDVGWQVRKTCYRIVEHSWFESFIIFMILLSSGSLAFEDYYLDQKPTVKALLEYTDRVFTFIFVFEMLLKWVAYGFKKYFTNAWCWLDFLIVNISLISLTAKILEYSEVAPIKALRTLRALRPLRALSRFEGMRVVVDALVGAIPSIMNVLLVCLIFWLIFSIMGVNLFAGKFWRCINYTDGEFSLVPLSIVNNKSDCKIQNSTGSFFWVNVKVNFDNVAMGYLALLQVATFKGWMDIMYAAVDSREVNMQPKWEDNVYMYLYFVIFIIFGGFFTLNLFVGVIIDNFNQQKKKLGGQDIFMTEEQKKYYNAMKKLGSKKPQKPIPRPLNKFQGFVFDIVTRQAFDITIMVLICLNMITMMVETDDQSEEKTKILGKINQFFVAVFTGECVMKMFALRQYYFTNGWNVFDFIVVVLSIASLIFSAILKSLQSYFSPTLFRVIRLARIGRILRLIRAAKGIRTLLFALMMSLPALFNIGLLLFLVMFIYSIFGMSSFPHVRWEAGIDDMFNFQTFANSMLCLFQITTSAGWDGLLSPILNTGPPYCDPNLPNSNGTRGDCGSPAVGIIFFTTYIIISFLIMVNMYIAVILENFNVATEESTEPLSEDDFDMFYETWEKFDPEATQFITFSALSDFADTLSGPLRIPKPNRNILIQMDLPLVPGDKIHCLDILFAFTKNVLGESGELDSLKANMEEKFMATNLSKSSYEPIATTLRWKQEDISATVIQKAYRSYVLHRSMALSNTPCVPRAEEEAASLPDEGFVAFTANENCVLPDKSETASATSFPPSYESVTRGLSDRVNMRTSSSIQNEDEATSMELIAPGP

The target in this experiment is human Nav1.8 (Homo sapiens (Human), UniProt Q9Y5Y9). Briefly: E-VIPR optical membrane potential assay with electrical stimulation. It is filed as cell-based. Conditions: HEK cells expressing human Nav1.8. From the text:
Assays for Detecting and Measuring NaV Inhibition Properties of Compounds E-VIPR Optical Membrane Potential Assay Method with Electrical Stimulation
Sodium channels are voltage-dependent proteins that can be activated by inducing membrane voltage changes by applying electric fields. The electrical stimulation instrument and methods of use are described in Ion Channel Assay Methods PCT/US01/21652, herein incorporated by reference and are referred to as E-VIPR. The instrument comprises a microtiter plate handler, an optical system for exciting the coumarin dye while simultaneously recording the coumarin and oxonol emissions, a waveform generator, a current- or voltage-controlled amplifier, and a device for inserting electrodes in well. Under integrated computer control, this instrument passes user-programmed electrical stimulus protocols to cells within the wells of the microtiter plate.
24 hours before the assay on E-VIPR, HEK cells expressing human Nav1.8 were seeded in 384-well poly-lysine coated plates at 15,000-20,000 cells per well. HEK cells were grown in media (exact composition is specific to each cell type and NaV subtype) supplemented with 10% FBS (Fetal Bovine Serum, qualified; GibcoBRL #16140-071) and 1% Pen-Strep (Penicillin-Streptomycin; GibcoBRL #15140-122). Cells were grown in vented cap flasks, in 90% humidity and 5% CO2.
1) Pre-spotted compounds (in neat DMSO) into compound plates. Vehicle control (neat DMSO), the positive control (20 mM DMSO stock tetracaine, 125 μM final in assay) and test compounds were added to each well at 160× desired final concentration in neat DMSO. Final compound plate volume was 80 μL (80-fold intermediate dilution from 1 μL DMSO spot; 160-fold final dilution after transfer to cell plate). Final DMSO concentration for all wells in assay was 0.625%.
2) Prepared Hexyl Dye Solution.
3) Prepared cell plates. On the day of the assay, medium was aspirated and cells were washed three times with 100 μL of Bath1 Solution, maintaining 25 μL residual volume in each well.
4) Dispensed 25 μL per well of Hexyl Dye Solution into cell plates. Incubated for 20-35 minutes at room temp or ambient conditions.
5) Dispensed 80 μL per well of Bath1 into compound plates. Acid Yellow-17 (1 mM) was added and Potassium Chloride was altered from 4.5 to 20 mM depending on the NaV subtype and assay sensitivity.
6) Washed cell plates three times with 100 μL per well of Bath1, leaving 25 μL of residual volume. Then transferred 25 uL per well from Compound Plates to Cell Plates. Incubated for 20-35 minutes at room temp/ambient condition.
7) Read Plate on E-VIPR. Used the current-controlled amplifier to deliver stimulation wave pulses for 10 seconds and a scan rate of 200 Hz. A pre-stimulus recording was performed for 0.5 seconds to obtain the un-stimulated intensities baseline. The stimulatory waveform was followed by 0.5 seconds of post-stimulation recording to examine the relaxation to the resting state.
Data was analyzed and reported as normalized ratios of emission intensities measured in the 460 nm and 580 nm channels. The response as a function of time was reported as the ratios obtained using the following formula: […]
The data was further reduced by calculating the initial (Ri) and final (Rf) ratios. These were the average ratio values during part or all of the pre-stimulation period, and during sample points during the stimulation period. The response to the stimulus R=Rf/Ri was then calculated and reported as a function of time.
Control responses were obtained by performing assays in the presence of a compound with the desired properties (positive control), such as tetracaine, and in the absence of pharmacological agents (negative control). Responses to the negative (N) and positive (P) controls were calculated as above. The compound antagonist activity A is defined as:
[formula] where R is the ratio response of the test compound
`COc1cc(F)ccc1Oc1nc2ccccc2nc1C(=O)Nc1cccc(-c2nnn[nH]2)c1` [Compound 45, N-(3-(1H-tetrazol-5-yl)phenyl)-3-(4-fluoro-2-methoxyphenoxy)quinoxaline-2-carboxamide] showed an IC50 of 1650 nM.

`COc1ccc(Oc2nc3ccccc3cc2C(=O)Nc2cccc(S(N)(=O)=O)c2)c(F)c1` [Compound 70, 2-(2-fluoro-4-methoxyphenoxy)-N-(3-sulfamoylphenyl)quinoline-3-carboxamide]: the IC50 came to 34 nM.

As to `O=C(O)c1ccc(NC(=O)c2nc3ccccc3nc2Oc2ccc(F)cc2)cn1` [Compound 18, 5-(3-(4-fluorophenoxy)quinoxaline-2-carboxamido)picolinic acid], the IC50 was determined as 250 nM.

Turning to `O=C(Nc1cc[nH]c(=O)c1)c1nc2ccccc2nc1Oc1ccc(F)cc1` [Compound 35, 3-(4-fluorophenoxy)-N-(2-oxo-1,2-dihydropyridin-4-yl)quinoxaline-2-carboxamide], the IC50 amounted to 74 nM. This IC50 is about 3.4-fold lower than that of the compound before.

In turn, `COc1cc(F)ccc1Oc1nc2ccccc2nc1C(=O)Nc1cc[nH]n1` [Compound 40, 3-(4-fluoro-2-methoxyphenoxy)-N-(1H-pyrazol-3-yl)quinoxaline-2-carboxamide] yielded an IC50 of 1700 nM. Against the preceding compound, the IC50 is about 23-fold higher.

Regarding `COc1cc(F)ccc1Oc1nc2ccccc2nc1C(=O)Nc1cccc(S(N)(=O)=O)c1` [Compound 2, 3-(4-fluoro-2-methoxyphenoxy)-N-(3-sulfamoylphenyl)quinoxaline-2-carboxamide], the IC50 worked out at 6 nM.

Compound `Cc1cc(Cl)ccc1Oc1nc2ccccc2nc1C(=O)Nc1ccc(C(=O)O)nc1` [Compound 25, 5-(3-(4-chloro-2-methylphenoxy)quinoxaline-2-carboxamido)picolinic acid] came in with an IC50 of 56 nM.

The compound `O=C(O)c1ccc(NC(=O)c2nc3ccccc3nc2Oc2ccc(F)cc2Cl)cn1` [Compound 28, 5-(3-(2-chloro-4-fluorophenoxy)quinoxaline-2-carboxamido)picolinic acid] registered an IC50 of 51 nM. The IC50 values of the last two compounds are within 1.5-fold of each other.

`COc1cc(F)ccc1Oc1nc2ccccc2nc1C(=O)Nc1ccc2cn[nH]c2c1` [Compound 47, 3-(4-fluoro-2-methoxyphenoxy)-N-(1H-indazol-6-yl)quinoxaline-2-carboxamide] had an IC50 of 130 nM.

`COc1cc(F)ccc1Oc1nc2ccccc2nc1C(=O)Nc1ccc2[nH]ncc2c1` [Compound 48, 3-(4-fluoro-2-methoxyphenoxy)-N-(1H-indazol-5-yl)quinoxaline-2-carboxamide] came in with an IC50 of 86 nM.

As for `O=C(O)c1ccc(NC(=O)c2nc3ccccc3nc2Oc2ccc(F)cc2F)cn1` [Compound 29, 5-(3-(2,4-difluorophenoxy)quinoxaline-2-carboxamido)picolinic acid], the IC50 turned out to be 185 nM.

In the case of `COc1cc(F)ccc1Oc1nc2ccccc2nc1C(=O)Nc1cccc(C(=O)O)c1` [Compound 36, 3-(3-(4-fluoro-2-methoxyphenoxy)quinoxaline-2-carboxamido)benzoic acid], it took 460 nM to reach half-maximal inhibition (IC50).

`COc1ccc(Oc2nc3ccccc3cc2C(=O)Nc2cccc(S(N)(=O)=O)c2)c(OC)c1` [Compound 72, 2-(2,4-dimethoxyphenoxy)-N-(3-sulfamoylphenyl)quinoline-3-carboxamide] yielded an IC50 of 26 nM.

The compound `COc1ccc(Oc2nc3ccccc3nc2C(=O)Nc2ccc(C(=O)O)nc2)cc1F` [Compound 27, 5-(3-(3-fluoro-4-methoxyphenoxy)quinoxaline-2-carboxamido)picolinic acid] returned an IC50 of 185 nM. Compared with the last compound, the IC50 is about 7.1-fold higher.

`O=C(O)c1ccc(NC(=O)c2nc3ccccc3nc2Oc2ccc(OCC(F)(F)F)cc2)cn1` [Compound 22, 5-(3-(4-(2,2,2-trifluoroethoxy)phenoxy)quinoxaline-2-carboxamido)picolinic acid] displayed a half-maximal inhibitory concentration (IC50) of 180 nM.

Turning to `COc1cc(F)ccc1Oc1nc2ccccc2nc1C(=O)Nc1cccnc1` [Compound 54, 3-(4-fluoro-2-methoxyphenoxy)-N-(pyridin-3-yl)quinoxaline-2-carboxamide], the IC50 stood at 80 nM. This IC50 lies about 2.2-fold lower than the previous one.

For `COc1cc(F)ccc1Oc1nc2ccccc2nc1C(=O)Nc1ccc2nc[nH]c2c1` [Compound 49, N-(1H-benzo[d]imidazol-6-yl)-3-(4-fluoro-2-methoxyphenoxy)quinoxaline-2-carboxamide], the IC50 is 585 nM.

`O=C(O)c1cc(NC(=O)c2nc3ccccc3nc2Oc2ccc(OC(F)(F)F)cc2)ccn1` [Compound 33, 4-(3-(4-(trifluoromethoxy)phenoxy)quinoxaline-2-carboxamido)picolinic acid] came in with an IC50 of 7 nM.

With `COc1cc(F)ccc1Oc1nc2ccccc2nc1C(=O)Nc1ccc(C#N)cn1` [Compound 52, N-(5-cyanopyridin-2-yl)-3-(4-fluoro-2-methoxyphenoxy)quinoxaline-2-carboxamide], the IC50 worked out at 2400 nM. This IC50 lies about 340-fold higher than the previous one.

For the compound `COc1ccc(Oc2nc3ccccc3cc2C(=O)Nc2cccc(S(N)(=O)=O)c2)cc1F` [Compound 62, 2-(3-fluoro-4-methoxyphenoxy)-N-(3-sulfamoylphenyl)quinoline-3-carboxamide], the IC50 came to 30 nM.

In the case of `NS(=O)(=O)c1cccc(NC(=O)c2cc3ccccc3nc2Oc2ccc(OCC(F)(F)F)cc2)c1` [Compound 67, N-(3-sulfamoylphenyl)-2-(4-(2,2,2-trifluoroethoxy)phenoxy)quinoline-3-carboxamide], inhibition was half-maximal at 61 nM (IC50).

`COc1cc(F)ccc1Oc1nc2ccccc2nc1C(=O)Nc1nc(C(=O)O)cs1` [Compound 37, 2-(3-(4-Fluoro-2-methoxyphenoxy)quinoxaline-2-carboxamido)thiazole-4-carboxylic acid] registered an IC50 of 450 nM.

As to `NS(=O)(=O)c1cccc(NC(=O)c2nc3ccccc3nc2Oc2ccccc2)c1` [Compound 13, 3-phenoxy-N-(3-sulfamoylphenyl)quinoxaline-2-carboxamide], the IC50 came to 92 nM. This IC50 is about 4.9-fold lower than that of the compound before.

`COc1ccc(Oc2nc3ccccc3nc2C(=O)Nc2ccc(C(=O)O)nc2)c(Cl)c1` [Compound 30, 5-(3-(2-chloro-4-methoxyphenoxy)quinoxaline-2-carboxamido)picolinic acid] came in with an IC50 of 69 nM.

`Cc1cc(F)ccc1Oc1nc2ccccc2nc1C(=O)Nc1ccc(C(=O)O)nc1` [Compound 19, 5-(3-(4-fluoro-2-methylphenoxy)quinoxaline-2-carboxamido)picolinic acid] registered an IC50 of 86 nM.

In turn, `NS(=O)(=O)c1cccc(NC(=O)c2nc3ccccc3nc2Oc2ccccc2OC(F)F)c1` [Compound 10, 3-(2-(difluoromethoxy)phenoxy)-N-(3-sulfamoylphenyl)quinoxaline-2-carboxamide] yielded an IC50 of 36 nM.

The IC50 is the concentration needed to halve the response being measured. Read a low IC50 as higher potency.
